Tests used:
Assay in all cases: microbe, parasite or virus in culture
Type in all cases: cell-based
[1] = tested on: SARS-CoV-2 alpha (B.1.1.7); conditions: for Selectivity index: SARS-CoV-2α, HEK293TA cells; for EC50: Severe acute respiratory syndrome coronavirus 2
[2] = tested on: SARS-CoV-2 delta (B.1.617.2); conditions: for Selectivity index: SARS-CoV-2δ, HEK293TA cells; for EC50: Severe acute respiratory syndrome coronavirus 2
SARS-CoV-2gamma (P.1) = conditions: for Selectivity index: SARS-CoV-2γ, HEK293TA cells; for EC50: Severe acute respiratory syndrome coronavirus 2

| SMILES | Selectivity index [1] | EC50 [1] [µM] | Selectivity index [2] | EC50 [2] [µM] | Selectivity index (SARS-CoV-2gamma (P.1)) | EC50 (SARS-CoV-2gamma (P.1)) [µM] |
| --- | --- | --- | --- | --- | --- | --- |
| O=C(CCCCCCCCc1ccc(O)c(O)c1)c1c(O)cccc1O [Compound 1, Malabaricone C] | 2.6 | 1.9 | 3.4 | 1.9 | 3.6 | 1.7 |
| CC(C)C(=O)OC[C@H]1O[C@@H](n2ccc(NO)nc2=O)[C@H](O)[C@@H]1O [Molnupiravir] | 14.7 | 0.4 | 13 | 0.45 | 13 | 0.52 |
| CCC(CC)COC(=O)[C@H](C)N[P@](=O)(OC[C@H]1O[C@@](C#N)(c2ccc3c(N)ncnn23)[C@H](O)[C@@H]1O)Oc1ccccc1 [Remdesivir] |  | < 0.078 |  | < 0.078 |  | < 0.078 |
